Source: patent US6133258A, “Inhibitor of kainic acid neurotoxicity and pyridothiazine derivative” (Yamanouchi Pharmaceutical Co., Ltd., priority 1995, dated 2000)

Tests used:
[1] = system: NMDA excitotoxicity or experimental animal models for epilepsy, cerebral ischemia; conditions: literature; cited from earlier work
DBA/2 mice = assay: Audiogenic seizure inhibitory action (anticonvulsant effect) in DBA/2 mice; format: in vivo; conditions: Mus musculus, ip, 0.75 h; i.p. 45 minutes before sound stimulation (12 kHz, 120 dB); ten male 21 to 28-day-old mice; read-out: Anticonvulsant effect for audiogenic seizure in DBA/2 mice, minimum effective dose
Description: 2) Measurement of audiogenic seizure inhibitory action in DBA/2 mice
The test compound was suspended in a 0.5% methylcellulose solution and the resulting suspension was intraperitoneally administered 45 minutes before the stimulation by the sound. The drug efficacy was evaluated by presence or absence of the appearance of seizure and the minimum effective dose was determined.

[2] = system: primary rat hippocampal cultures; assay: Inhibition of kainic acid neurotoxicity (LDH release) in primary rat hippocampal cultures; format: cell-based; conditions: Hippocampal neuron; 300 μM kainic acid, 24 hours, primary rat hippocampal neurons, lactate dehydrogenase release
Description: 1) Inhibition of kainic acid neurotoxicity
The effect of the compound of the present invention for inhibiting kainic acid neurotoxicity was studied using primary rat hippocampal cultures.
(1) Incubation conditions
The hippocampus was dissected from a brain of the 18 to 20-day-old fetal rat and was subjected to enzyme treatment with papain and DNase I to disperse the cells. The cells so obtained were suspended in MEM containing 10% serum and plated on poly-L-lysine coated 48-well plates at a density of 4×10^5 cells/cm^2. Twenty four hours later, the medium was replaced by a serum-free medium. The medium was changed twice a week. The cells which were cultured for at least 6 days were provided for the following test.
(2) Inhibition against kainic acid neurotoxicity
Neurotoxicity was assessed by an activity of lactate dehydrogenase released into the culture medium from destroyed cells. As a control, neurons which were exposed to a serum-free medium containing 300 μM kainic acid for 24 hours were used. Each compound, together with 300 μM kainic acid, was allowed to act on the neuron for 24 hours and inhibitory action of each compound against kainic acid neurotoxicity was evaluated.

AMPA receptor = conditions: literature; cited from earlier work
[3] = system: experimental animal model for cerebral ischemia; conditions: literature; cited from earlier work
AMPA-induced cell death = conditions: literature; cited from earlier work

| SMILES | minimal effective dose (DBA/2 mice) | IC50 [2] | effect in experimental animal model for cerebral ischemia [3] | other results |
| --- | --- | --- | --- | --- |
| NC(CCCP(=O)(O)O)C(=O)O (centres unmarked) [2-amino-5-phosphonovaleric acid] |  |  |  | protective effect against NMDA excitotoxicity or in experimental animal models for epilepsy, cerebral ischemia, etc. [1]: protective against NMDA excitotoxicity or in experimental animal models for epilepsy, cerebral ischemia, etc. |
| NC(CCCCCP(=O)(O)O)C(=O)O (centres unmarked) [2-amino-7-phosphonoheptanoic acid] |  |  |  | protective effect against NMDA excitotoxicity or in experimental animal models for epilepsy, cerebral ischemia, etc. [1]: protective against NMDA excitotoxicity or in experimental animal models for epilepsy, cerebral ischemia, etc. |
| CN(c1ccc(Br)cc1)c1nc(=O)c2cccnc2s1 [16-2), 2-[N-(4-Bromophenyl)-N-methylamino]-4H-pyrido[3,2-e]-1,3-thiazin-4-one] | 30 mg/kg | 1000 nM |  |  |
| CN(c1ccc(Cl)cc1)c1nc(=O)c2cccnc2s1 [Example 64, 2-[N-(4-Chlorophenyl)-N-methylamino]-4H pyrido[3,2-e]-1,3-thiazin-4-one] | 10 mg/kg | 1400 nM |  |  |
| Cc1cccc(N(C)c2nc(=O)c3cccnc3s2)c1 [Example 72, 2-[N-Methyl-N-(3-methylphenyl)amino]-4H-pyrido[3,2-e]-1,3-thiazin-4-one] | 30 mg/kg | 1900 nM |  |  |
| CC1=NN=C(c2ccc(N)cc2)c2cc3c(cc2C1)OCO3 [GYKI52466] |  |  | effective in an experimental animal model for cerebral ischemia | effect on AMPA receptor desensitization (AMPA receptor): counteracts the inhibition of desensitization by cyclothiazide |
| NC1CCN(O)C1=O (centres unmarked) [HA-966] |  |  | effective in an experimental animal model for cerebral ischemia |  |
| NS(=O)(=O)c1cccc2c1c([N+](=O)[O-])cc1[nH]c(=O)c(=O)[nH]c12 [NBQX] |  |  | effective in the experimental animal model for cerebral ischemia |  |
| NS(=O)(=O)c1cc2c(cc1Cl)NC(C1CC3C=CC1C3)NS2(=O)=O (centres unmarked) [cyclothiazide] |  |  |  | effect on AMPA receptor desensitization (AMPA receptor): desensitization inhibitor; effect on AMPA-induced cell death (AMPA-induced cell death): accelerate AMPA-induced cell death |
